In brackets after ≈: the same amount, converted by molar mass.
Experiments:
DU145 cells = test: MTT assay (cytotoxicity / cell proliferation) in DU145; assay type: cell-based, human; settings: Homo sapiens, DU-145; MTT assay, FIG. 4; read-out: GI50 against DU145
Experimental: (§1) FIG. 4. Bioassay of compound I-1, compound I-2, and compound I-3. SPA14-3-2 is pure compound I-2. SPA14-3-3 is pure compound I-3. SPA14-3-4 is pure compound I-1. MTT assays using compound I-1, compound I-2, and compound I-3 against DU145 and RWPE-1 cells lines.
FIG. 8. Cell proliferation assay. (A) DU145 or PC3 prostate cancer were plated at a density of 1,500 cells per well in 96-well plates and incubated 18 hours at 37° C. to allow adherence. They were untreated or treated by addition of different concentrations of compound I-1 (which were added directly to the medium) or vehicle (DMSO), and proliferation was measured using a 3-(4,5-dimethylthiazol-2-yl)-2,5-diphenyltetrazolium bromide MTT assay after 3 days of treatment. Points, mean of triplicate normalized samples to vehicle sample; bars, SE. (B) GI50 after 3 days of treatment. (C) Prostate cancer cells (DU145 or PC3) or a non-malignant epithelial cells (RWPE-1) were plated at a density of 1,000 cells per well in 96-well plates and incubated 18 hours at 37° C. to allow adherence. They were untreated or treated by addition of different concentrations of compound I-1 (added directly to the medium) or vehicle (DMSO), and proliferation was by MTT assay after 5 days of treatment. Points, mean of triplicate normalized samples to vehicle sample; bars, SE.
(§2) Isolation, NMR, and X-ray crystallographic analyses. Leaves, stems, and few fruits of Physalis angulate L (Solanaceae) were collected in Rio Domingusa. Kuith/Barranquita, Amazonas Department, Northeastern Peru, and identified by the team led by Walter Lewis (collection voucher 18597, Ext. 1159). Dried and grounded material (46 g) was extracted with ethanol (1 L, 95%) for 7 days. The evaporated crude extract (6.26 g) was denoted SPA. An aliquot (1.5 g) of SPA was partitioned between dichloromethane (40 mL) and water (40 mL), affording two fractions: organic (SPA1, 500 mg) and aqueous (SPA2, 600 mg). All MTT assays were performed as described in Bates et al. “G-Rich Oligonucleotides for Cancer Treatment” Chapter 21 of Methods in Molecular Biology, Gene Therapy of Cancer, Wolfgang Walther and Ulrike S. Stein (eds.), Vol. 542, 2009, Humana Press. […] SPA14-3 (30 mg) was treated on an HPLC using a reverse phase C18 column eluted in gradient mode of methanol and water (from 80% methanol to 100% methanol) and detected at 254 nm, yielding SPA14-3-1 (0 mg), SPA14-3-2 (1.2 mg of pure compound I-2), SPA14-3-3 (4.1 mg of pure compound I-3), and SPA14-3-4 (18 mg of pure compound I-1).
General Experimental Procedure. Compound I-1 was isolated as described in Example Set 1, above. For samples of compound I-1 used in Example Set 2, HPLC and NMR indicated a purity of at least 95%. All experiments described in Example Set 2 were repeated at least two or three times. […]

RWPE-1 cells = test: MTT assay (cytotoxicity) in RWPE-1; assay type: cell-based; settings: Homo sapiens, FIG. 4, read-out: GI50 against RWPE-1
From the text: as §1, §2
General Experimental Procedure. Compound I-1 was isolated as described in Example Set 1, above. For samples of compound I-1 used in Example Set 2, HPLC and NMR indicated a purity of at least 95%. All experiments described in Example Set 2 were repeated at least two or three times. All MTT assays were performed according to Bates et al. “G-Rich Oligonucleotides for Cancer Treatment” Chapter 21 of Methods in Molecular Biology, Gene Therapy of Cancer, Wolfgang Walther and Ulrike S. Stein (eds.), Vol. 542, 2009, Humana Press.

Row | SMILES | GI50 (DU145 cells) [µg/mL] | GI50 (RWPE-1 cells) [µg/mL]
1 | CC12C[C@@H]([C@@]34CC[C@@]5(O3)C3C(O4)[C@H]4O[C@]46CC=CC(=O)[C@]6(C)[C@H]3CC[C@@]5(C)O)C(C[C@@]1(C)O)OC2=O (stereo partly shown) [I-2] | 3.4 (≈ 6.79 µM) | 3 (≈ 5.99 µM)
2 | CC12C[C@@H]([C@@]34CC[C@@]5(O3)C3C(O4)[C@H]4O[C@]46CC=CC(=O)[C@]6(C)[C@H]3CC[C@]5(C)O)C(C[C@@]1(C)O)OC2=O (stereo partly shown) [I-3] | 3 (≈ 5.99 µM) | 3.3 (≈ 6.59 µM)
